The record followed here is US11498903B2 (BRISTOL-MYERS SQUIBB COMPANY, priority 2017, dated 2022).

The test addresses T1, human APJ receptor (Homo sapiens, UniProt P35414).
T1 construct: expressed in transfected cells
T1 sequence (P35414 1-380): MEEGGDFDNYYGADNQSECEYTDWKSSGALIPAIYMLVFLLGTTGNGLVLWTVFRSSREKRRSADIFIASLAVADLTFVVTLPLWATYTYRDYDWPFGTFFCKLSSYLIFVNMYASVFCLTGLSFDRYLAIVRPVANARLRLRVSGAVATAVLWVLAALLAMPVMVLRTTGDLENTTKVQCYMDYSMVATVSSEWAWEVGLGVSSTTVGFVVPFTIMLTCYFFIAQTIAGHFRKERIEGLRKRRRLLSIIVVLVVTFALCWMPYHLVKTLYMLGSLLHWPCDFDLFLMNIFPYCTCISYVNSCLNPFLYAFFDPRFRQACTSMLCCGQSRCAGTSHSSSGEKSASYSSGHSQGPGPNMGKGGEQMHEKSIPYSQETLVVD
Description: Intracellular cAMP accumulation assay (APJ hcAMP, HTRF). The class given is cell-based. The gist of the method: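 Inhibition of 2 μM forskolin-driven cAMP ([…] present) measured by HTRF in 5,000 HEK293 cells/well stably expressing human APJ, 30 min, room temperature. EC50 came from a variable-slope sigmoidal fit; Ymax was relative to (Pyr1)apelin-13 set at 100%.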
Background: Cyclic AMP is a second messenger, typically raised through Gs and lowered through Gi signalling.

Setting [1] is: Table 1, HEK293 cells stably expressing human APJ receptor, inhibition of forskolin-mediated cAMP production, read-out: APJ hcAMP EC50.
Where [2] appears, read: human APJ, cAMP, potency range class, read-out: APJ cAMP Human EC50.
The mark [3] stands for this setting: Table 2, HEK293 cells stably expressing human APJ receptor, read-out: APJ cAMP Human EC50.

What is called EC50 is the midpoint of the concentration-response curve.

Read-outs that look alike come from different tables or passages of the source.

On to `CCC[C@H](NC(=O)c1ccc(-c2c(Cl)cccc2-c2nc3cc(OC)c(F)cc3[nH]2)c(C(=O)O)c1)c1ccccc1C(F)(F)F` (single isomer, unassigned) [Example 196], for which the concentration giving a half-maximal response (EC50) by setting is: under setting [1], under 10 nM; under setting [2], under 10 nM. In the case of `CCCC(NC(=O)c1ccc(-c2c(Cl)cccc2-c2nc3cc(OC)c(F)cc3[nH]2)c(C(=O)O)c1)c1ccc(Cl)cc1OC` (single isomer, unassigned) [Example 197], the EC50 under setting [1] is under 10 nM and the concentration for a half-maximal effect (EC50) under setting [2] is under 10 nM.

As to `CCCC(NC(=O)c1ccc(-c2c(Cl)cccc2-c2nc3cc(OC)c(F)cc3[nH]2)c(C(=O)O)c1)C1CCCCC1` (single isomer, unassigned) [Example 198], the concentration for a half-maximal effect (EC50) runs as follows: under setting [1], under 10 nM; under setting [2], under 10 nM. With `CCC[C@H](NC(=O)c1ccc(-c2c(Cl)cccc2-c2nc3cc(Cl)c(F)cc3[nH]2)c(C(=O)O)c1)c1ccncc1` (single isomer, unassigned) [Example 199], the EC50 under setting [1] was under 10 nM and the EC50 under setting [2] was under 10 nM.

`CCC[C@H](NC(=O)c1ccc(-c2c(Cl)cccc2-c2nc3cc(Cl)c(F)cc3[nH]2)c(C(=O)O)c1)c1ccc(Cl)cc1OC` (single isomer, unassigned) [Example 200]: the concentration giving a half-maximal response (EC50) was under 10 nM under setting [1] and under 10 nM under setting [2]. Take `CCCC(NC(=O)c1ccc(-c2c(Cl)cccc2-c2nc3cc(Cl)c(F)cc3[nH]2)c(C(=O)O)c1)c1c(C)cc(C)cc1C` (single isomer, unassigned) [Example 201]: the EC50 is, setting by setting: under setting [1], under 10 nM; under setting [2], under 10 nM. `COC(=O)c1cc(C(=O)N[C@H](c2ccc(Cl)cc2)C2CC2)ccc1-c1c(Cl)cccc1-c1nc2cc(OC)c(F)cc2[nH]1` (single isomer, unassigned) [Example 204]: the EC50 runs as follows: under setting [1], 101 to 500 nM; under setting [2], 101 to 500 nM. In the case of `COc1cc2nc(-c3cccc(Cl)c3-c3ccc(C(=O)N[C@H](c4ccc(Cl)cc4)C4CC4)cc3CO)[nH]c2cc1F` (single isomer, unassigned) [Example 205], the EC50 is 10 to 100 nM under setting [1] and 10 to 100 nM under setting [2].

For the molecule `CCCC(NC(=O)c1ccc(-c2cc(Cl)ccc2-c2nc3ccccc3[nH]2)c(C(=O)O)c1)c1ccc(F)cc1` (single isomer, unassigned) [Example 209, 2′-(1H-1,3-benzodiazol-2-yl)-5′-chloro-4-{[1-(4-fluorophenyl)butyl]carbamoyl}-[1,1′-biphenyl]-2-carboxylic acid], the EC50 by setting is: under setting [1], under 10 nM; under setting [2], under 10 nM. For the molecule `O=C(NC(c1ccccc1)C1CC1)c1ccc(-c2cc(Cl)ccc2-c2nc3ccccc3[nH]2)c(C(=O)O)c1` (single isomer, unassigned) [Example 211, 2′-(1H-1,3-benzodiazol-2-yl)-5′-chloro-4-{[cyclopropyl(phenyl)methyl]carbamoyl}-[1,1′-biphenyl]-2-carboxylic acid], the EC50 runs as follows: under setting [1], under 10 nM; under setting [2], under 10 nM. `CCCC(NC(=O)c1ccc(-c2cc(Cl)ccc2-c2nc3ccccc3[nH]2)c(C(=O)O)c1)c1ccc(F)cc1` (single isomer, unassigned) [Example 215, 2′-(1H-1,3-benzodiazol-2-yl)-5′-chloro-4-{[1-(4-fluorophenyl)butyl]carbamoyl}-[1,1′-biphenyl]-2-carboxylic acid]: the EC50 by setting is: under setting [1], 101 to 500 nM; under setting [2], 101 to 500 nM.

With `O=C(NC(c1ccccc1)C1CC1)c1ccc(-c2c(Cl)cccc2-c2nc3ccccc3[nH]2)c(C(=O)O)c1` (single isomer, unassigned) [Example 220], the EC50 is under 10 nM under setting [1] and under 10 nM under setting [2]. Consider `CCC[C@H](NC(=O)c1ccc(-c2c(Cl)cccc2-c2nc3ccccc3[nH]2)c(C(=O)O)c1)c1ccccc1OC` (single isomer, unassigned) [Example 221], for which the EC50 under setting [1] is under 10 nM and the EC50 under setting [2] is under 10 nM.

In the case of `O=C(NC(c1ccc(Cl)cc1)C1CC1)c1ccc(-c2c(Cl)cccc2-c2nc3ccccc3[nH]2)c(C(=O)O)c1` (single isomer, unassigned) [Example 224], the concentration for a half-maximal effect (EC50) under setting [1] is under 10 nM and the EC50 under setting [2] was under 10 nM. As for `O=C(NC(C1CCCCC1)C1CC1)c1ccc(-c2c(Cl)cccc2-c2nc3ccccc3[nH]2)c(C(=O)O)c1` (single isomer, unassigned) [Example 227], the EC50 is, setting by setting: under setting [1], under 10 nM; under setting [2], under 10 nM. On to `CCCC(NC(=O)c1ccc(-c2c(Cl)cccc2-c2nc3ccccc3[nH]2)c(C(=O)O)c1)c1ccc(F)cc1` (single isomer, unassigned) [Example 228], for which the EC50 is, setting by setting: under setting [1], under 10 nM; under setting [2], under 10 nM. As for `O=C(N[C@H](c1ccccc1)C1CC1)c1ccc(-c2c(Cl)cccc2-c2nc3ccccc3[nH]2)c(C(=O)O)c1` (single isomer, unassigned) [Example 229], the EC50 lay within 10 to 100 nM under setting [1] and 10 to 100 nM under setting [2].

Take `CCC[C@@H](NC(=O)c1ccc(-c2c(Cl)cccc2-c2nc3cc(OC)ccc3[nH]2)c(C(=O)O)c1)C1CCCCC1` (single isomer, unassigned) [Example 231]: the EC50 is under 10 nM under setting [1] and under 10 nM under setting [2]. For `CCC[C@H](NC(=O)c1ccc(-c2c(Cl)cccc2-c2nc3cc(OC)c(F)cc3[nH]2)c(C(=O)O)c1)c1ccc(F)cc1` (single isomer, unassigned) [Example 233], the EC50 is under 10 nM under setting [1] and under 10 nM under setting [2]. Take `COc1cc2nc(-c3cccc(Cl)c3-c3ccc(C(=O)N[C@H](c4ccccc4)C4CC4)cc3C(=O)O)[nH]c2cc1F` (single isomer, unassigned) [Example 234]: the EC50 is under 10 nM under setting [1] and under 10 nM under setting [2].

Take `COc1cc2nc(-c3cccc(Cl)c3-c3ccc(C(=O)NC(C4CCCCC4)C4CC4)cc3C(=O)O)[nH]c2cc1F` (single isomer, unassigned) [Example 235]: the EC50 under setting [1] was under 10 nM and the EC50 under setting [2] was under 10 nM. As for `CCC[C@H](NC(=O)c1ccc(-c2c(Cl)cccc2-c2nc3cc(OC)c(F)cc3[nH]2)c(C(=O)O)c1)c1ccc(Cl)cc1` (single isomer, unassigned) [Example 236], the EC50 is under 10 nM under setting [1] and under 10 nM under setting [2]. As to `COc1cc2nc(-c3cccc(Cl)c3-c3ccc(C(=O)N[C@H](c4ccc(Cl)cc4)C4CC4)cc3C(=O)O)[nH]c2cc1F` (single isomer, unassigned) [Example 237], the EC50 under setting [1] was under 10 nM and the concentration for a half-maximal effect (EC50) under setting [2] was under 10 nM. In the case of `CCC[C@H](NC(=O)c1ccc(-c2c(Cl)cccc2-c2nc3cc(OC)c(F)cc3[nH]2)c(C(=O)O)c1)c1ccccc1OC` (single isomer, unassigned) [Example 238], the EC50 under setting [1] was under 10 nM and the EC50 under setting [2] was under 10 nM. As for `CCC[C@H](NC(=O)c1ccc(-c2c(Cl)cccc2-c2nc3cc(F)c(Cl)cc3[nH]2)c(C(=O)O)c1)c1ccc(Cl)cc1` (single isomer, unassigned) [Example 239], the EC50 by setting is: under setting [1], under 10 nM; under setting [2], under 10 nM. As for `O=C(N[C@H](c1ccc(Cl)cc1)C1CC1)c1ccc(-c2c(Cl)cccc2-c2nc3cc(F)c(Cl)cc3[nH]2)c(C(=O)O)c1` (single isomer, unassigned) [Example 240], the EC50 reads like this: under setting [1], under 10 nM; under setting [2], under 10 nM. `CCC[C@H](NC(=O)c1ccc(-c2c(Cl)cccc2-c2nc3cc(OC)c(F)cc3[nH]2)c(CO)c1)c1ccccc1` (stereo in doubt) [Example 131, (S)-2′-chloro-6′-(6-fluoro-5-methoxy-1H-1,3-benzodiazol-2-yl)-2-(hydroxymethyl)-N-(1-phenylbutyl)-[1,1′-biphenyl]-4-carboxamide]: the EC50 (Table 3, HEK293 cells stably expressing human APJ receptor, read-out: APJ cAMP Human EC50) is 10 to 100 nM.

For `CCC[C@@H](NC(=O)c1ccc(-c2cc(Cl)ccc2-c2nc3cc(OC)ccc3[nH]2)c(C(=O)O)c1)c1ccccc1` [Example 1, (R)-5′-Chloro-2′-(5-methoxy-1H-benzo[d]imidazol-2-yl)-4-((1-phenylbutyl)carbamoyl)-[1,1′-biphenyl]-2-carboxylic acid], the EC50 is under 10 nM under setting [1] and under 10 nM under setting [3]. For `CCC[C@@H](NC(=O)c1ccc(-c2cc(Cl)ccc2-c2nc3ccccc3[nH]2)c(C(=O)O)c1)c1ccccc1` [Example 2, (R)-2′-(1H-Benzo[d]imidazol-2-yl)-5′-chloro-4-((1-phenylbutyl)carbamoyl)-[1,1′-biphenyl]-2-carboxylic acid], the EC50 under setting [1] was under 10 nM and the EC50 under setting [3] is under 10 nM. On to `CCC[C@@H](NC(=O)c1ccc(-c2cc(Cl)ccc2-c2nc3cc(O)ccc3[nH]2)c(C(=O)O)c1)c1ccccc1` [Example 3, (R)-5′-Chloro-2′-(5-hydroxy-1H-benzo[d]imidazol-2-yl)-4-((1-phenylbutyl)carbamoyl)-[1,1′-biphenyl]-2-carboxylic acid], for which the EC50 under setting [1] was under 10 nM and the EC50 under setting [3] is under 10 nM. With `CCC[C@@H](NC(=O)c1ccc(-c2cc(Cl)ccc2-c2ncc(-c3ccccc3)[nH]2)c(C(=O)O)c1)c1ccccc1` [Example 4, (R)-5′-Chloro-2′-(4-phenyl-1H-imidazol-2-yl)-4-((1-phenylbutyl)carbamoyl)-[1,1′-biphenyl]-2-carboxylic acid], the EC50 by setting is: under setting [1], under 10 nM; under setting [3], under 10 nM.
